The target of assay [1] is T1, human DGKζ (Homo sapiens (Human), UniProt Q13574). Nature of the assay: DGKζ LIPGLO assay (extruded liposome substrate). The assay is classed as biochemical. In a few lines:
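Recombinant DGKζ (Sf9-expressed, Ni/SEC/SP-purified) preincubated 10 min with extruded 100 nm PC/DAG/PS liposomes in 50 mM MOPS pH 7.5, 100 mM NaCl, 10 mM MgCl2, 1 μM CaCl2, 1 mM DTT. Started with 300 uM ATP solution (stock, pre-addition); 1 hr reaction. ADP-Glo luminescence; IC50 from 11 concentrations.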

For assay [2], the target named is T1, human DGKζ. Nature of the assay: DGKζ assay (detergent/lipid micelle substrate). In kind it is biochemical. Put shortly: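 Full-length human DGKα or DGKζ (C-terminal His tag, Sf9-expressed; 20 nM 4× stock) was preincubated 10 min at room temperature with PS/DAG octyl glucoside micelles in MOPS pH 7.5 buffer with MgCl2, CaCl2 and DTT. It was then started with ATP (300 uM addition) and run for 1 hr, with ADP-Glo luminescence read-out.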

[3] abbreviates: DGKζ LIPGLO IC50, extruded liposome substrate.
The mark [4] stands for this setting: detergent/lipid micelle substrate, read-out: DGKζ IC50.
[5] abbreviates: extruded liposome substrate, read-out: DGKζ LIPGLO IC50.
The mark [6] stands for this setting: DGKζ IC50, detergent/lipid micelle substrate.

Structures are written as SMILES.

Drawing on US11866430B2, “Naphthyridinone compounds useful as T cell activators” (priority 2018, dated 2024), this text covers IC50 for 8 compounds.

T1 sequence (Q13574 other isoform, or with tags, fused parts or gaps): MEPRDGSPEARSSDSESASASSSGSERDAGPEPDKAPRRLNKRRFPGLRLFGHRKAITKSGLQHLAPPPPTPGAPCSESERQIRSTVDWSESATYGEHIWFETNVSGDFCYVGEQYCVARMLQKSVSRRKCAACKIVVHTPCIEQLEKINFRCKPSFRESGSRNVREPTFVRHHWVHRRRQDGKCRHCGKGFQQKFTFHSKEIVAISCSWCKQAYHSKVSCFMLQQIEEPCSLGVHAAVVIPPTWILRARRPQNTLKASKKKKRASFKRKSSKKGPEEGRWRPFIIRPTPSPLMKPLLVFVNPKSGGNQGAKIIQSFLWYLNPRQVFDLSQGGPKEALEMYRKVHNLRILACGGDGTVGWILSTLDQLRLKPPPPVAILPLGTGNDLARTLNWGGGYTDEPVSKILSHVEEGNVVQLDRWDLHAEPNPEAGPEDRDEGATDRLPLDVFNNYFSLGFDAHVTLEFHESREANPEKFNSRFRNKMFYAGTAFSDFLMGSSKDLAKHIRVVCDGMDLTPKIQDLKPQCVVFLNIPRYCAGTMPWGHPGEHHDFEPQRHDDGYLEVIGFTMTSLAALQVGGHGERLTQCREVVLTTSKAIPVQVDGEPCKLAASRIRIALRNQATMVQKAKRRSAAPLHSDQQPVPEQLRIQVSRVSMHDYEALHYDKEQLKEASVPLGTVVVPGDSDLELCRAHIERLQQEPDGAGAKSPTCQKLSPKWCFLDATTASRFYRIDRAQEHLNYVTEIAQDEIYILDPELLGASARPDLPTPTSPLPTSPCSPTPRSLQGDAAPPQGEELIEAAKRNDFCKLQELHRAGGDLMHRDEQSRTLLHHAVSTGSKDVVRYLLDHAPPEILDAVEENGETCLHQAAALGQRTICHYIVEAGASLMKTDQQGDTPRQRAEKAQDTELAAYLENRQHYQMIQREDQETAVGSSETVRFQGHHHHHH

Usually IC50 stands for the concentration that gives 50% inhibition. On to `Cn1c(=O)c(C#N)c(N2CCN(C(c3ccc(F)cc3)c3ccccc3O)CC2)c2nc(C#N)ccc21` (stereo not shown) [Example 11, 8-{4-[(4-fluorophenyl)(2-hydroxyphenyl)methyl]piperazin-1-yl}-5-methyl-6-oxo-5,6-dihydro-1,5-naphthyridine-2,7-dicarbonitrile], for which the IC50 was 1800 nM at human DGKζ [1] (setting [3]) and 4000 nM on human DGKζ [2] (setting [4]).

For `CC(C)C(c1ccc(F)cc1)N1CCN(c2c(C#N)c(=O)n(C)c3ccc(Cl)nc23)CC1` (single isomer, unassigned) [Example 315, 6-chloro-4-{4-[1-(4-fluorophenyl)-2-methylpropyl]piperazin-1-yl}-methyl-2-oxo-1,2-dihydro-1,5-naphthyridine-3-carbonitrile], the IC50 on human DGKζ [1] (setting [5]) is 1600 nM; at human DGKζ [2] (setting [4]), over 240000 nM.

Consider `CC(c1ccc(F)cc1)N1CCN(c2c([N+](=O)[O-])c(=O)n(C)c3ccc(C#N)nc23)CC1` (single isomer, unassigned) [Example 44, 8-(4-(1-(4-fluorophenyl)ethyl)piperazin-1-yl)-5-methyl-7-nitro-6-oxo-5,6-dihydro-1,5-naphthyridine-2-carbonitrile], for which the results for the IC50 on human DGKζ [1] (setting [5]) and on human DGKζ [2] (setting [4]) were 1300 nM and 8900 nM, respectively.

Consider `C#CCn1c(=O)c([N+](=O)[O-])c(N2CCN(C(C)c3ccc(F)cc3)CC2)c2nc(C#N)ccc21` (single isomer, unassigned) [Example 136, 8-(4-(1-(4-fluorophenyl)ethyl)piperazin-1-yl)-7-nitro-6-oxo-5-(prop-2-yn-1-yl)-5,6-dihydro-1,5-naphthyridine-2-carbonitrile], for which the results for the IC50 at human DGKζ [1] (setting [3]) and against human DGKζ [2] (setting [6]) were 210 nM and 870 nM, respectively.

On to `COc1cc(F)ccc1C(c1ccc(F)cc1)N1CCN(c2c([N+](=O)[O-])c(=O)n(C)c3ccc(C#N)nc23)CC1` (single isomer, unassigned) [Example 124, 8-(4-((4-fluoro-2-methoxyphenyl)(4-fluorophenyl)methyl)piperazin-1-yl)-5-methyl-7-nitro-6-oxo-5,6-dihydro-1,5-naphthyridine-2-carbonitrile], for which the IC50 at human DGKζ [1] (setting [3]) stood at 160 nM; at human DGKζ [2] (setting [6]), 900 nM.

As to `Cn1c(=O)c(C#N)c(N2CCN(C(C)(C)c3ccc(F)cc3)CC2)c2nc(Cl)ccc21` [Example 425, 6-chloro-4-{4-[2-(4-fluorophenyl)propan-2-yl]piperazin-1-yl}-1-methyl-2-oxo-1,2-dihydro-1,5-naphthyridine-3-carbonitrile], the concentration for half-maximal inhibition (IC50) at human DGKζ [1] (setting [5]) and on human DGKζ [2] (setting [4]) was over 240000 nM in each case.

For the compound `C#CCn1c(=O)c([N+](=O)[O-])c(N2CCN(C(c3ccc(F)cc3)C3CC3)CC2)c2nc(C#N)ccc21` (single isomer, unassigned) [Example 143, 8-(4-(cyclopropyl(4-fluorophenyl)methyl)piperazin-1-yl)-7-nitro-6-oxo-5-(prop-2-yn-1-yl)-5,6-dihydro-1,5-naphthyridine-2-carbonitrile], the values for the IC50 at human DGKζ [1] (setting [5]) and on human DGKζ [2] (setting [4]) were 1100 nM and 4200 nM, respectively.

Regarding `Cc1ccc2c(n1)c(N1CCN(C(C)c3ccc(F)cc3)CC1)c(Br)c(=O)n2C` (stereo not shown) [Example 224, 3-bromo-4-(4-(1-(4-fluorophenyl)ethyl)piperazin-1-yl)-1,6-dimethyl-1,5-naphthyridin-2(1H)-one], the half-inhibitory concentration (IC50) is 20000 nM on human DGKζ [1] (setting [5]) and over 240000 nM on human DGKζ [2] (setting [4]).
